Data as given in patent US10988465B2, “CXCR4 inhibitors and uses thereof” (X4 Pharmaceuticals, Inc., priority 2016, dated 2021).

How the values were obtained:
[1] = molecular target: T1, Jurkat cells expressing CXCR4 (Homo sapiens, UniProt P61073); assay: Chemokine (CXCL12-AF647) binding inhibition assay; conditions: CXCL12-AF647 25 ng/mL, read-out: IC50 CXCL-12 binding Jurkat
T1 construct: endogenous in cells; host or cells: Jurkat
Protocol: Chemokine (CXCL12-AF647) Binding Inhibition Assay
Jurkat cells expressing CXCR4 were washed once with assay buffer (Hanks' balanced salt solution with 20 mM HEPES buffer and 0.2% bovine serum albumin, pH 7.4) and then incubated for 15 min at room temperature with the test compounds diluted in assay buffer at dose-dependent concentrations. Subsequently, CXCL12-AF647 (25 ng/mL) was added to the compound-incubated cells. The cells were incubated for 30 min at room temperature. Thereafter, the cells were washed twice in assay buffer, fixed in 1% paraformaldehyde in PBS, and analyzed on the FL4 channel of a FACSCalibur flow cytometer equipped with a 635-nm red diode laser (Becton Dickinson, San Jose, Calif., USA).
The percentages of inhibition of CXCL12-AF647 binding were calculated according to the formula: [1−((MFI−MFINC)/(MFIPC−MFINC))]×100 where MFI is the mean fluorescence intensity of the cells incubated with CXCL12-AF647 in the presence of the inhibitor, MFINC is the mean fluorescence intensity measured in the negative control (i.e., autofluorescence of unlabeled cells), and MFIPC is the mean fluorescence intensity of the positive control (i.e., cells exposed to CXCL12-AF647 alone).

[2] = molecular target: T2, CXCR-4 transfected U87 cell line (U87.CXCR4) (Homo sapiens, UniProt P61073); assay: Intracellular CXCL-12-induced calcium mobilization assay (FLIPR); assay type: cell-based; conditions: U87.CXCR4 cells; CXCL-12 25-50 ng/mL; compound added 15 min before; read-out: IC50 CXCL-12 Ca^2+ flux U87.CXCR4+
T2 construct: expressed in transfected cells; host or cells: U87 (U87.CXCR4)
T2 sequence (P61073 whole entry): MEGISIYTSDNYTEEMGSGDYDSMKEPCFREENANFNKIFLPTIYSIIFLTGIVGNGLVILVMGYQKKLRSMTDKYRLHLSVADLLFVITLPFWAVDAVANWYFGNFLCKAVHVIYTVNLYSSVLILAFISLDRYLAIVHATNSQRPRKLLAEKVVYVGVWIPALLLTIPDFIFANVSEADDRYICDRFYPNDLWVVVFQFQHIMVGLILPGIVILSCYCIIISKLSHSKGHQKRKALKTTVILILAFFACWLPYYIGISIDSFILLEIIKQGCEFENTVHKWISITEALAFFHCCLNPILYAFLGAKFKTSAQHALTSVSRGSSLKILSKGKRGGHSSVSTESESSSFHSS
Protocol: Example 36: REGA Screening Assay
Intracellular CXCL-12-Induced Calcium Mobilization Assay
Intracellular calcium mobilization induced by chemokines or chemokine-derived peptides were evaluated using a calcium responsive fluorescent probe and a FLIPR system. The CXCR-4 transfected U87 cell line (U87.CXCR4) cells were seeded in gelatine-coated black-wall 96-well plates at 20,000 cells per well and incubated for 12 hours. Cells were then loaded with the fluorescent calcium probe Fluo-2 acetoxymethyl at 4 μM final concentration in assay buffer (Hanks' balanced salt solution with 20 mM HEPES buffer and 0.2% bovine serum albumin, pH 7.4) for 45 min at 37° C. The intracellular calcium mobilization induced by the CXCL-12 (25-50 ng/mL) was then measured at 37° C. by monitoring the fluorescence as a function of time in all the wells simultaneously using a fluorometric imaging plate reader (FLIPR Tetra, Molecular Devices).

in vitro = conditions: human, Caco-2, pH 7.4
Protocol: Example 37: Caco-2 Permeability Assay
The goal of this assay was to evaluate the intestinal absorption potential of drug candidates using Caco-2 cell lines.
HBSS buffer with 0.3% DMSO and 5 μM LY: add 150 μL DMSO and 50 μL LY (5 mM) into 50 ml HBSS buffer (pH 7.4).
HBSS buffer with 0.1% DMSO and 5 μM LY: add 50 μL DMSO and 50 μL LY (5 mM) into 50 mL HBSS buffer (pH 7.4).
HBSS buffer with 0.3% DMSO: add 150 μL DMSO into 50 ml HBSS buffer (pH 7.4).
HBSS buffer with 0.1% DMSO: add 50 μL DMSO into 50 ml HBSS buffer (pH 7.4).
Prepare HBSS buffer with 0.4% DMSO: add 200 μL DMSO into 50 ml HBSS buffer (pH 7.4).
Prepare HBSS buffer with 0.4% DMSO and 5 μM LY: add 200 μL DMSO and 50 μL LY (5 mM) into 50 ml HBSS buffer (pH 7.4).
4. Measure TEER Take cell culture plate out of incubator, wash the cell monolayers with HBSS buffer, and then measure TEER values at Rm temperature. 5. Centrifuge Centrifuge the compound solution (from step 3) at 4000 rpm for 5 min before loading to donor chambers. 6. Dosing Add solution based on the volumes listed in the following table (make sure to take extra 100 μL of donor sample for T0 as Backup).
7. Apical LYT0 samples To determine LY concentration in the apical chember, take 100 μL sample from apical chambers into an opaque plate for LYT0. 8. Prewarm Prewarm apical and basolateral plates at 37° C. for about 5 min, then begin transport by placing the apical plate onto basolateral plate. 9. Incubation Keep the plates in incubator at 37° C. for 90 min. 10. Standard Curve preparation
11. Transport termination Separate the apical plate from the basolateral plate after 90-min incubation.
Receiver sample: 60 μL of receiver sample+60 μL ACN with IS (Osalmid or Imipramine)
Study details: Test concentration 10 μM
Test systems: Caco-2/HBSS solution
Incubation conditions: 0, 90 min at 37° C.
Sample size: Duplicates (n=2)
Bioanalytical method: LC-MS/MS
For Millicell-24 Cell Culture Plates: surface area of the membrane=0.7 cm^2, VA=0.8 mL (A-to-B) or 0.4 mL (B-to-A)
1. Papp values were calculated based on calculated concentrations.
The compound numbers correspond to the compound numbers in Table 1.

T1 sequence (P61073 whole entry): as above

| SMILES | IC50 [1] [nM] | IC50 [2] [nM] | Papp A→B at 90 min, 10 μM (in vitro) [×10⁻⁶ cm/s] | Papp B→A at 90 min, 10 μM (in vitro) [×10⁻⁶ cm/s] | efflux ratio at 90 min, 10 μM (in vitro) |
| --- | --- | --- | --- | --- | --- |
| CN1CCC(c2cccc3nc([C@H]4CCC[C@@H](c5ncccc5Cl)N4)[nH]c23)CC1 [I-152] | 0.01 to 100 | 0.01 to 100 | 0.1 to 10 | 10 to 30 | 0.1 to 10 |
| CN1CCN(c2cccc3nc([C@H]4CCC[C@@H](c5ncccc5C(F)(F)F)N4C)[nH]c23)CC1 (relative stereo) [I-58] | 0.01 to 100 | ≥ 1000 | 10 to 30 | 10 to 30 | 0.1 to 10 |
| Cc1cccnc1[C@@H]1CCC[C@H](c2nc3cccc(C4CCN(C)CC4)c3[nH]2)N1C [I-34] | 0.01 to 100 | 0.01 to 100 | 0.1 to 10 | 10 to 30 | 0.1 to 10 |
| Cc1cccnc1[C@@H]1CCC[C@H](c2nc3cccc(N4CCC(N(C)C)CC4)c3[nH]2)N1C [I-67] | 0.01 to 100 | 0.01 to 100 | 0.1 to 10 | 10 to 30 | 0.1 to 10 |
| CN1CCC(n2ccnc2[C@H]2CCC[C@@H](c3ccccn3)N2)CC1 [I-180] | ≥ 1000 | ≥ 1000 | 0.1 to 10 | 10 to 30 | 0.1 to 10 |
| Cc1cccnc1[C@@H]1C[C@H](O)C[C@H](c2nc3cccc(N4CCN(C)CC4)c3[nH]2)N1C [I-100] | 0.01 to 100 | 0.01 to 100 | 0.1 to 10 | 10 to 30 | > 30 |
| Cc1cccnc1[C@@H]1CCC[C@H](c2nc3cccc(OC4CCN(C)CC4)c3[nH]2)N1C [I-42] | 0.01 to 100 | 0.01 to 100 | 0.1 to 10 | 10 to 30 | 0.1 to 10 |
| Cc1cccnc1[C@@H]1CCC[C@H](c2nc3ccccc3n2CCCN2CCN(C)CC2)N1C [I-17, 2-((2R,6S)-1-methyl-6-(3-methylpyridin-2-yl)piperidin-2-yl)-1-(3-(4-methylpiperazin-1-yl)propyl)-1H-benzo[d]imidazole] | 0.01 to 100 | 0.01 to 100 | 0.1 to 10 | 0.1 to 10 | 0.1 to 10 |
| Cc1cccnc1[C@@H]1CCC[C@H](c2nc3ccccc3n2CCCN(C)C)N1C [I-5, N,N-dimethyl-3-(2-((2R,6S)-1-methyl-6-(3-methylpyridin-2-yl)piperidin-2-yl)-1H-benzo[d]imidazol-1-yl)propan-1-amine] | 0.01 to 100 | 0.01 to 100 | 0.1 to 10 | 0.1 to 10 | 0.1 to 10 |
| Cc1cccnc1[C@@H]1CCC[C@H](c2nc3ccccc3n2CC2CCCNC2)N1C (stereo partly drawn) [I-12, 2-((2R,6S)-1-methyl-6-(3-methylpyridin-2-yl)piperidin-2-yl)-1-(piperidin-3-ylmethyl)-1H-benzo[d]imidazole] | 0.01 to 100 | 0.01 to 100 | 0.1 to 10 | 10 to 30 | 10 to 30 |
| Cc1cccnc1[C@@H]1CCC[C@H](c2nccn2Cc2ccccc2-n2cccn2)N1 [I-167] | ≥ 1000 | ≥ 1000 | > 30 | > 30 | 0.1 to 10 |
| Cc1cccnc1[C@@H]1CCC[C@H](c2nc3cccc(C4CCNCC4)c3[nH]2)N1C [I-11, 2-((2R,6S)-1-methyl-6-(3-methylpyridin-2-yl)piperidin-2-yl)-7-(piperidin-4-yl)-1H-benzo[d]imidazole] | 0.01 to 100 | 0.01 to 100 | 0.1 to 10 | 10 to 30 | > 30 |
| Cc1cccnc1[C@@H]1CCC[C@H](c2nc3cccc(N4CCN(c5ccccn5)CC4)c3[nH]2)N1 [I-162] | 100 to 1000 | ≥ 1000 | 10 to 30 | 10 to 30 | 0.1 to 10 |
| Cc1cccnc1[C@@H]1CCC[C@H](c2nc3ccccc3n2CCC#N)N1C [I-160] | 100 to 1000 | ≥ 1000 | > 30 | > 30 | 0.1 to 10 |
| Cc1cccnc1[C@@H]1CCC[C@H](c2nc3ccccc3n2CCCCN)N1C [I-4, 4-(2-((2R,6S)-1-methyl-6-(3-methylpyridin-2-yl)piperidin-2-yl)-1H-benzo[d]imidazol-1-yl)butan-1-amine] | 0.01 to 100 | 0.01 to 100 |  |  |  |
| Cc1cccnc1[C@@H]1CCC[C@H](c2nc3ccccc3n2CCn2ccnc2)N1C [I-6, 1-(2-(1H-imidazol-1-yl)ethyl)-2-((2R,6S)-1-methyl-6-(3-methylpyridin-2-yl)piperidin-2-yl)-1H-benzo[d]imidazole] | 0.01 to 100 | 100 to 1000 |  |  |  |
| Cc1cccnc1[C@@H]1CCC[C@H](c2nc3ccccc3n2CCc2ccccn2)N1C [I-8, 2-((2R,6S)-1-methyl-6-(3-methylpyridin-2-yl)piperidin-2-yl)-1-(2-(pyridin-2-yl)ethyl)-1H-benzo[d]imidazole] | 100 to 1000 | ≥ 1000 |  |  |  |
| Cc1cccnc1[C@@H]1CCCC(c2nccn2CCCc2ccccn2)N1 (stereo in doubt) [I-178] | 100 to 1000 | ≥ 1000 |  |  |  |
| Cc1cccc(F)c1[C@@H]1CCC[C@H](c2nc3cccc(N4CCN(C)CC4)c3[nH]2)N1C [I-138] | ≥ 1000 | ≥ 1000 |  |  |  |
| Cc1cccnc1[C@@H]1CCC[C@H](c2nc3ccccc3n2CCCO)N1C [I-20, 3-(2-((2R,6S)-1-methyl-6-(3-methylpyridin-2-yl)piperidin-2-yl)-1H-benzo[d]imidazol-1-yl)propan-1-ol] | 0.01 to 100 | 100 to 1000 |  |  |  |
| CN1CCN(c2cccc3nc([C@H]4CCC[C@@H](c5ncccc5Cl)N4)n(C)c23)CC1 [I-124] | 0.01 to 100 | 0.01 to 100 |  |  |  |
| COCCc1ccc(OCC(O)CNC(C)C)cc1 (stereo not drawn) [Metoprolol, reference compound] |  |  | > 10 | > 10 |  |
| Cc1cccnc1[C@@H]1CCC[C@H](c2nc3cccc(Oc4cccnc4)c3[nH]2)N1C [I-77] | 100 to 1000 | ≥ 1000 |  |  |  |
| Cc1cccnc1[C@@H]1CCC[C@H](c2nc3cccc(Oc4ccncc4)c3[nH]2)N1C [I-78] | ≥ 1000 | ≥ 1000 |  |  |  |
| COCCCn1c([C@H]2CCC[C@@H](c3ncccc3C)N2C)nc2ccccc21 [I-157] | 0.01 to 100 | ≥ 1000 |  |  |  |
| Cc1cccnc1[C@@H]1CCC[C@H](c2nc3ccccc3n2CCCO)N1 [I-156] | 100 to 1000 | ≥ 1000 |  |  |  |
| CCN1CCN(c2cccc3nc([C@H]4CCC[C@@H](c5ncccc5C(F)(F)F)N4C)[nH]c23)CC1 (relative stereo) [I-59] | 0.01 to 100 | ≥ 1000 |  |  |  |
